Counter-ions that a name gives are not always drawn.
Key:
Format in all cases: in vivo, Danio rerio
[1] = tested on: zebrafish exposed to P. aeruginosa LPS; experiment: Model compound testing in the optimized zebrafish sepsis model (varying LPS dose ranges); conditions: for complete rescue of exposed fish: 60 μg/mL LPS challenge concentration
Description: Three sources of LPS were evaluated: E. coli 0111:B4, P. aeruginosa Sigma L9143, and K. pneumoniae. E. coli 0111:B4 LPS was selected as the reference LPS used by Philip et al. (2017). P. aeruginosa LPS is commonly associated with infections in hospitals, accounting for an estimated 32,600 cases and resulting in an estimated 2,700 deaths in 2017 (CDC Report 2019). P. aeruginosa infections are also a common cause of sepsis in both patients with severe burns and immunocompromised patients. K. pneumoniae LPS has military relevance related to battlefield injury infections (Kiley et al., 2021). Initial range finding LC50 tests with larval zebrafish were conducted for each LPS strain at both 3-dpf and 5-dpf. […] (E. coli 0111:B4 was also tested at higher concentrations, 400, 800, and 1000 μg/mL due a lack of toxicity within the initial dose range.) Well plates were then covered with parafilm and placed into an incubator at 28.5° C. for 24 hours. After 6 and 24 hours, the plates were removed and scored for mortality, tail edema, and ROS production. The tail edema endpoint evaluates vascular leakage from caudal fin in response to LPS exposure (FIG. 2). ROS production was determined as described by Philip et al. (2017) by adding 2,7-dichloroflurescein diacetate (100 μM) to the wells containing the zebrafish larvae and incubating them in a 100% dark photoperiod incubator at 28.5° C. for one hour. Florescent images of the incubated zebrafish were then captured with a Keyence BZ-X710 fluorescent microscope using 10× objective with a GFP filter and fixed 1/15 second exposure for all imaging. […] Results from the LPS toxicity testing and endpoint screening were used to develop the optimized testing procedure through evaluation in selected model compounds, as described in the next section and in the results.
The optimized zebrafish sepsis model was evaluated against compounds previously shown to have efficacy in previous zebrafish sepsis models: fasudil, hydrocortisone, dexamethasone, and fisetin. Fasudil, an anti-vascular leakage compound (inhibitor of the RhoA/Rho-kinase pathway) was shown by Philip et al. (2017) to rescue zebrafish from LPS-induced mortality, ROS production, and tail fin edema. Fasudil also rescued LPS-induced vascular leakage in murine models of experimental sepsis (Li et al., 2010) and reduced acute lung injury in septic rats through inhibition of the Rho/ROCK signaling pathway (Wang et al., 2018). […] Endpoints evaluated with model compounds included mortality, tail edema, and ROS at 6- and 24-hours post exposure to varying dose ranges of LPS.
LC50s for the LPS tests were determined using the Trimmed Spearmen-Karber method (Hamilton et al., 1977). The tail edema and mortality data from the initial and confirmatory drug testing was analyzed using GraphPad Prism 9 using Fisher's Exact Test. Each drug treatment group was compared pairwise with the on-board positive control group on each test plate. Statistical significance was determined with values of p≤0.05. Neurological behavioral testing data was analyzed by Ethovision software that produced an activity analysis profile per frame for each well of the 96 well plates. Any dead embryos were removed from the data set, and the remaining data set was imported into Excel. […] The behavioral data was then statistically analyzed by drug per phase using a 2 tailed t-test to determine statistical significance p≤0.01.

[2] = tested on: larval zebrafish exposed to Pseudomonas aeruginosa 60 μg/mL lipopolysaccharide (LPS); experiment: Zebrafish endotoxicity/sepsis model drug screening, statements without larval stage; conditions: for rescue from mortality / rescue from vascular damage (tail edema): zebrafish endotoxemia model
From the text: To identify potential sepsis drug candidates, an optimized larval zebrafish model of endotoxicity/sepsis was used to screen commercial libraries of U.S. Food and Drug Administration (FDA)-approved drugs and other active pharmaceutical ingredients (API) known to affect pathways implicated in the initiation and progression of sepsis in humans (i.e., inflammation, mitochondrial dysfunction, coagulation, and apoptosis). In this model, endotoxicity was induced in 3- and 5-day post fertilization larval zebrafish (characterized by mortality and tail fin edema (vascular leakage)) by immersion exposure to Pseudomonas aeruginosa 60 μg/mL lipopolysaccharide (LPS) for 24 hours, then screened for the rescue potential of 644 selected drugs simultaneously with LPS at 10 μM. After LPS exposure, a neurobehavioral assay (light-dark test) was performed to further evaluate rescue from endotoxicity and to determine possible off-target drug side effects.

[3] = tested on: zebrafish (4 dpf pre-treated, LPS exposure at 5-dpf) challenged with P. aeruginosa LPS 60 μg/mL; conditions: for 24 hour Tail Edema, No-Drug Pretreatment / 24 Hour Mortality and Tail Edema, Drug Pretreatment / 24 Hour Mortality, Drug Pretreatment / 24 hour Tail Edema, Drug Pretreatment / 24 Hour Mortality and Tail Edema, No-Drug Pretreatment / 24 Hour Mortality, No Drug Pretreatment: number of n = 16 fish; for 24 hour Tail Edema, No-Drug Pretreatment: 10 μM drug with LPS 60 μg/mL; for 24 hour Tail Edema, No-Drug Pretreatment / 24 Hour Mortality and Tail Edema, No-Drug Pretreatment / 24 Hour Mortality, No Drug Pretreatment: no 24-hour pre-treatment; for 24 Hour Mortality and Tail Edema, Drug Pretreatment / 24 Hour Mortality, Drug Pretreatment: 24-hour 10 μM drug pre-treatment; for 24 hour Tail Edema, Drug Pretreatment: 24-hour 10 μM drug pre-treatment before LPS 60 μg/mL
Description: Drugs identified with >80% rescue were subjected to additional testing. Drug pretreatment for 24 hours prior to LPS challenge was evaluated to determine if any prophylactic benefit could be realized with any of the top rescue drugs. The intent was to determine if drug pre-treatment might be used at the point of injury as a preventative therapeutic before the onset of infection and development of sepsis. Parallel groups of fish received a 24-hour drug pre-treatment or no drug pre-treatment prior to LPS challenge. For this test, 4 dpf PTU-treated zebrafish embryos were placed into 96 well plates containing 100 μL of EM. […] All plates were covered with parafilm and placed into an incubator at 28.5° C. for 24 hours. […] Once the plates were dosed, they were covered with parafilm and placed into an incubator at 28.5° C. The plates were removed at 6- and 24-hours post exposure and scored for tail edema and mortality. Once the 24-hour tail edema and mortality endpoints were collected, a neurobehavioral test was conducted as described in section 2.8.

[4] = tested on: 5-dpf zebrafish larvae challenged with P. aeruginosa LPS 60 μg/mL; conditions: compound 10 μM; for 5 dpf Embryos Percent Rescue (Mort + Tail Edema): 5-dpf larvae
From the text: Confirmatory testing followed the same methods as the initial testing but used 5-dpf larvae instead of the 3-dpf larvae that were used for the initial screening because they were easier to handle and replicated the methods of Philip et al. (2017).
Next, follow-on 5-dpf screening was implemented to confirm initial screening with more larvae. Zebrafish swim faster at 5-dpf (requiring more time to load 96 plates), and all major organ systems are functioning at 5-dpf and thus determined as advantageous for follow-on confirmation.

[5] = tested on: 3-dpf Zebrafish Embryos Challenged with LPS (P. aeruginosa 60 μg/mL); conditions: P. aeruginosa LPS 60 μg/mL, compound 10 μM; for Percent Rescue (Mort + Tail Edema): 3-dpf embryos, n=16; for Percent Rescue (Mort + Tail Edema) / rescue of tail edema and mortality (sepsis rescue rate) at 3-dpf: 24 hours; for 3 dpf Embryos Percent Rescue (Mort + Tail Edema): initial 3-dpf screen shown for reference
Description: Healthy, normally developing embryos collected from the adult AB zebrafish spawning events were treated with 75 μM of 1-phenyl 2-thiourea (PTU) in EM prior to 24 hours post fertilization (hpf) to block pigmentation formation (Karlsson et al, 2001). These embryos were then placed into an incubator at 28.5° C. until they reached 3-dpf. Embryos were then removed from the incubator and plated individually into the wells of 96 well plates containing 50 μL of EM.
A super stock of 120 μg/mL of P. aeruginosa LPS was made up in EM in a glass container. This stock was then used to make sub stocks of 120 μg/mL P. aeruginosa LPS (positive control) and 120 μg/mL P. aeruginosa LPS containing 20 μM of test drug in glass scintillation vials. Immediately after the sub stocks were made, the wells were dosed with either 50 μL of 120 μg/mL of P. aeruginosa, 120 μg/mL of P. aeruginosa with 20 μM of test drug, or EM (1:1 Dilution). Each 96 well plate had one LPS positive control (n=16), 4 different test drugs with P. aeruginosa LPS (n=16 per drug), and one negative control (n=16). Once the plates were dosed, they were covered with parafilm and placed into an incubator at 28.5° C. The plates were removed at 6- and 24-hours post exposure to be scored for tail edema and mortality. All 644 drugs evaluated for rescue from mortality and tail edema induced by P. aeruginosa LPS exposure as compared to LPS-treated controls after 24 hours of exposure.
3-dpf embryos were challenged with 60 μg/mL P. aeruginosa LPS in combination with single 10 μM concentration of each compound for 24 hours (n=16 fish per compound). […] Other 29 compounds exceeded 60% rescue of tail edema and mortality at 24 hours post exposure.

| Molecule | 24 hour Tail Edema, No-Drug Pretreatment [3] [fish] | 24 Hour Mortality and Tail Edema, Drug Pretreatment [3] [fish] | 24 Hour Mortality, Drug Pretreatment [3] [fish] | 24 hour Tail Edema, Drug Pretreatment [3] [fish] | 24 Hour Mortality and Tail Edema, No-Drug Pretreatment [3] [fish] | 24 Hour Mortality, No Drug Pretreatment [3] [fish] | 5 dpf Embryos Percent Rescue (Mort + Tail Edema) [4] [%] | rescue of tail edema and mortality (sepsis rescue rate) at 5-dpf [4] [%] | Percent Rescue (Mort + Tail Edema) [5] [%] | rescue of tail edema and mortality (sepsis rescue rate) at 3-dpf [5] [%] | 3 dpf Embryos Percent Rescue (Mort + Tail Edema) [5] [%] | other results |
| --- | --- | --- | --- | --- | --- | --- | --- | --- | --- | --- | --- | --- |
| O=S(=O)(c1cccc2cnccc12)N1CCCNCC1 [Fasudil] |  |  |  |  |  |  |  |  |  |  |  | complete rescue of exposed fish [1]: Neither compound showed complete rescue; mortality at 24 hours post exposure ([1]; 24 hours post LPS exposure): statistically significant (p=0.0233) reduction in mortality |
| CN1C2CCCC1CC(NC(=O)c1nn(C)c3ccccc13)C2 (stereo not drawn) [Granisetron] |  |  |  |  |  |  |  |  |  |  |  | rescue from mortality [2]: significant reduction in mortality; rescue from vascular damage (tail edema) [2]: did not rescue from vascular damage (tail edema) |
| Ferric citrate [Compound 340] | 2 | 15 | 15 | 0 | 15 | 13 | 81 | 81 | 94 | 94 | 94 | fish with tail edemas ([2]; 6 hours post exposure): 9 of 16 fish; fish with tail edema ([2]; 24 hours): 1 of 16 |
| O=c1c(O)c(-c2ccc(O)c(O)c2)oc2cc(O)ccc12 [Fisetin] |  |  |  |  |  |  |  |  |  |  |  | complete rescue of exposed fish [1]: Neither compound showed complete rescue |
| O=C(O)c1cn(C2CC2)c2cc(N3CCNCC3)c(F)cc2c1=O [Compound 34, Ciprofloxacin (hydrochloride monohydrate)] |  |  |  |  |  |  | 6 |  |  |  | 13 | rescue from mortality [2]: provided rescue from mortality; rescue from vascular damage (tail edema) [2]: did not elicit rescue from vascular damage |
| CCN(CC)CCNC(=O)c1c(C)[nH]c(/C=C2\C(=O)Nc3ccc(F)cc32)c1C [Compound 97, Sunitinib] | 4 | 4 | 3 | 1 | 7 | 3 | 100 | 100 | 81 | 81 | 81 | Pre-Treatment Rescue (n = 16) ([3]; 24-hour drug pre-treatment, P. aeruginosa LPS 60 μg/mL): 88%; No Pre-Treatment Rescue (n = 16) ([3]; no 24-hour drug pre-treatment, P. aeruginosa LPS 60 μg/mL): 69% |
| O=C1NCC2(CCN(CCc3ccccc3)CC2)O1 [Compound 17, Fenspiride hydrochloride] | 0 | 16 | 16 | 0 | 16 | 16 | 88 | 88 | 63 | 63 | 63 |  |
| Cc1nccn1CC1CCc2c(c3ccccc3n2C)C1=O (stereo not drawn) [Ondansetron] |  |  |  |  |  |  |  |  |  |  |  | efficacy in the zebrafish endotoxicity sepsis model ([2]; in vivo): not efficacious |
| COc1ccc2c(c1)N(C[C@H](C)CN(C)C)c1ccccc1S2 [Compound 316, Levomepromazine] | 1 | 16 | 16 | 0 | 16 | 15 | 88 | 88 | 63 | 63 | 63 |  |
| CN1c2c(nc(N)[nH]c2=O)NC[C@@H]1CNc1ccc(C(=O)N[C@@H](CCC(=O)O)C(=O)O)cc1 [Compound 344, Levomefolic acid] | 1 | 16 | 16 | 0 | 16 | 15 | 88 | 88 | 63 | 63 | 63 |  |

— patent US20250085273A1, “NOVEL RAPID DRUG DISCOVERY FOR SEPSIS AND AGENTS FOR USE AS SEPSIS THERAPY” (priority 2023, published 2025)
